Test results from ChEMBL document CHEMBL3425453, “Luciferin and derivatives as a DYRK selective scaffold for the design of protein kinase inhibitors” (Eur J Med Chem, 2015).

Target: Cyclin-dependent kinase 2 (Homo sapiens) (UniProt P24941)

Tm [°C] | Compound
43.9 | O=C(O)[C@H]1CSC(c2ccc3cccc(O)c3n2)=N1
43.4 | O=C(O)[C@H]1CSC(c2ccc3cc(O)ccc3n2)=N1
